In article PMC10892836, “Hybrid Molecules of Azithromycin with Chloramphenicol and Metronidazole: Synthesis and Study of Antibacterial Properties” (Pharmaceuticals, 2024):
In brackets after ≈: the same amount, converted by molar mass. Several values for one entry are separate records, joined by “and”; a condition that tells them apart may be missing. Equal values may be shown once.

What was measured:
[1] = system: E. coli ΔtolC pErmCL-ErmC; assay: MIC, broth microdilution, E. coli ΔtolC panel; format: cell-based; conditions: for MIC: Escherichia coli
Protocol: In order to create the construct pErmCL-ErmC, the vector backbone was amplified using pZa-fwd (5′-TAAGAATTCTCTAGCCCG-3′) and pZa-rev (5′-[…]-3′) primers, and the pERMZα plasmid as a template. The ermC gene was amplified from the pERMCTP plasmid with ErmC-fwd (5′-[…]-3′) and ErmC-rev (5′-TAGGCGGGCTAGAGAATTC-3′) primers. The joining of two DNA fragments was performed using the NEBuilder® HiFi DNA Assembly Master Mix (New England Biolabs, Ipswich, MA, USA). Sequences of intermediate products and the final construct were confirmed by Sanger sequencing with appropriate primers.
(§1) The E. coli ΔtolC strain was also transformed with the pErmC, pErmCL-ErmC, and pERMZα plasmids. The resulting strains were grown at 37 °C in LB medium supplied with 100 μg/mL ampicillin.
(§2) MIC values for a panel of E. coli ΔtolC strains were determined via the broth microdilution assay as described here with minor modifications. Briefly, the overnight E. coli culture was diluted to an OD600 of 0.01 in the fresh LB medium supplied with 100 μg/mL ampicillin, if required. Then, the cells were additionally incubated for 1–1.5 h at 37 °C with shaking at 200 rpm (Shaker-Incubator ES-20/80, BioSan, Riga, Latvia). Meanwhile, 100 μL of the liquid growth medium was placed in each well of a 96-well sterile plate (200 μL was placed in column 1). Solutions of tested compounds were added in the first column of the plate at 2 times the final concentration of 200 μg/mL. Then, 2-fold serial dilutions were performed. Immediately before use, bacterial inoculum was diluted (1:100) in the growth medium, and 100 μL of it was transferred in each well except for the sterility control column. The plate was incubated overnight (16–20 h) at 37 °C with constant shaking at 200 rpm (Shaker-Incubator ES-20/80, BioSan, Riga Latvia). Cell growth was assessed by scanning the OD600 with a VICTOR X5 Multilabel Plate Reader (PerkinElmer, Waltham, MA, USA).
(§3) Minimum inhibitory concentration (MIC) was defined as the lowest concentration of a chemical compound that inhibits the visible growth of the bacterial strain. At least three replicates of MIC measurements were performed.

E. coli ΔtolC pErmC = assay: MIC, broth microdilution, E. coli ΔtolC panel; format: cell-based; conditions: Escherichia coli
Protocol: as §1, §2, §3

E. coli ΔtolC pERMZα = assay: MIC, broth microdilution, E. coli ΔtolC panel; format: cell-based; conditions: Escherichia coli
Protocol: as §1, §2, §3

E. coli ΔtolC = assay: MIC, broth microdilution, E. coli ΔtolC panel; format: cell-based; conditions: for MIC: Escherichia coli
From the text: The E. coli JW5503 strain with a deletion of the tolC gene (referred to here as E. coli ΔtolC) was kindly provided by Prof. Hironori Niki, National Institute of Genetics, Japan. The E. coli BW25113 strain with a partial deletion of the lptD gene, codons 330 to 352 (referred to here as E. coli lptD^mut) was kindly provided by Prof. Alexander S. Mankin, University of Illinois, Chicago, IL, USA [44]. The E. coli ΔtolC strain was transformed with the pDualrep2 (Amp^R) plasmid, whereas the E. coli lptD^mut strain was transformed with the pDualrep2 (Kan^R) plasmid (not yet published). Both E. coli strains were grown at 37 °C in Luria–Bertani (LB) medium supplemented with either 100 μg/mL ampicillin or 50 μg/mL kanamycin.
as §2, §3

[2] = system: cell-free bacterial translation system based on the E. coli S30 lysate; assay: In vitro translation in a cell-free bacterial system (firefly luciferase synthesis); format: biochemical; conditions: for Relative luciferase activity (relative maximal rate of Fluc accumulation): final concentration 5 μM, water control = 100%
Protocol: The inhibition of firefly luciferase (Fluc) synthesis by new azithromycin derivatives was assessed with the E. coli S30 Extract System for Linear Templates (Promega, Madison, WI, USA). Each reaction (5 μL total volume) was supplied with 0.1 mM mixture of all canonical amino acids, 4 U of RiboLock RNase Inhibitor (Thermo Fisher Scientific, Waltham, MA, USA), 0.1 mM of D-luciferin (Sigma-Aldrich, Burlington, MA, USA), 50 ng of firefly luciferase (Fluc) mRNA, and a chemical compound at a final concentration, as indicated in the main text, or nuclease-free water instead. Before the addition of mRNA, reaction tubes were pre-incubated at RT for 5 min and then placed back on ice. After the addition of mRNA, reaction mixtures were immediately subjected to continuous chemiluminescence measurement using the VICTOR X5 Multilabel Plate Reader (PerkinElmer, Waltham, MA, USA) at 37 °C for 30 min. Maximal rates of the firefly luciferase (Fluc) accumulation were calculated using the OriginPro 7.5 software. The values were normalized to a positive control (nuclease-free water, assigned a value of 100%). The results were visualized using the QtiPlot software (version 0.9.8.9).

[3] = system: Propionibacterium acnes 55; assay: MIC, agar dilution, anaerobic bacteria (CLSI M11-A9); format: cell-based; conditions: Cutibacterium acnes; P. acnes 55, anaerobic clinical isolate
[4] = system: Staphylococcus aureus ATCC 29213; assay: MIC, broth microdilution (CLSI); format: cell-based; conditions: ATCC29213, S. aureus ATCC 29213
Protocol: (§4) Minimum inhibitory concentration (MIC) values for facultative anaerobic bacteria were determined using the broth microdilution method outlined in the CLSI guidelines. Initially, all compounds were dissolved in dimethyl sulfoxide (DMSO) to achieve a concentration of 10 mg/mL. Subsequently, they were diluted with the Mueller–Hinton nutrient broth (MHB) supplemented with 5% defibrinated horse blood (for Streptococcus spp.) to a concentration of 64 μg/mL. Following 2-fold serial dilutions of the substances, bacterial cultures in the log growth phase were added to 96-well plates at a concentration of 2.5–5 × 10^5 CFU/mL, and the plates were incubated at 37 °C for 16–20 h.
as §3

[5] = system: Streptococcus agalactiae 1Cp; assay: MIC, broth microdilution (CLSI); format: cell-based; conditions: S. agalactiae 1Cp, Table 3
Protocol: as §4, §3

[6] = system: Streptococcus pneumoniae ATCC 49619; assay: MIC, broth microdilution (CLSI); format: cell-based; conditions: ATCC49619, S. pneumoniae ATCC 49619, Tables 2 and 3
Protocol: as §4, §3

[7] = system: Clostridium sporogenes ATCC 19404; assay: MIC, agar dilution, anaerobic bacteria (CLSI M11-A9); format: cell-based; conditions: ATCC19404, C. sporogenes ATCC 19404, anaerobic
Protocol: The antimicrobial activity against anaerobic bacteria was evaluated using the agar dilution method in accordance with the CLSI document M11-A9 [58]. Twofold serial dilutions of compounds, at 10 times the desired concentration, were prepared in water and diluted (1:10) with the Brucella Agar medium containing 5% defibrinated horse blood, 5 mg/L hemin, and 1 mg/L vitamin K. The resulting plates were inoculated with approximately 10^5 CFU per spot using a replicator and incubated anaerobically at 36 °C for 48 h.
as §3

70S E. coli ribosomes = assay: Competition-binding assay with BODIPY-ERY (fluorescence anisotropy); conditions: displacement of BODIPY-ERY; means, 95% confidence intervals; read-out: Apparent dissociation constant KD
Protocol: Affinity of compounds to the 70S E. coli ribosomes (isolated from the E. coli MRE600 strain according to a published procedure) was evaluated with a competition-binding assay using fluorescently labeled erythromycin (BODIPY-ERY) as described earlier. Briefly, BODIPY-ERY (16 nM) was mixed with ribosomes (34 nM) in 384-well plates in the buffer containing 20 mM HEPES-KOH (pH 7.5), 50 mM NH4Cl, 10 mM Mg(CH3CO2)2, 4 mM β-mercaptoethanol, and 0.05% (v/v) Tween-20. Solutions of the tested compounds were added to the obtained complexes to final concentrations from 1 to 1000 nM and incubated for 2 h at 30 °C. The values of fluorescence anisotropy were obtained using the VICTOR X5 Multilabel Plate Reader (PerkinElmer, Waltham, MA, USA). Filters of 485 and 535 nm were used for excitation and emission, respectively. To calculate the apparent dissociation constants, the assumption that the competitive equilibrium binding of two ligands occurs at a single binding site was used. For each compound, at least 2 replicates were performed. Values of apparent dissociation constants are given as means with 95% confidence intervals. The results were visualized using the GraphPad Prism software (version 8.0.1).

[8] = system: Escherichia coli ATCC 25922; assay: MIC, broth microdilution (CLSI); format: cell-based; conditions: ATCC25922, E. coli ATCC 25922
Protocol: as §4, §3

[9] = system: ribosome stalling on ermCL mRNA; assay: Toe-printing (primer extension inhibition) analysis on ermCL mRNA; format: biochemical; conditions: 50 μM (chloramphenicol 30 μM)
Protocol: The toe-printing (primer extension inhibition) analysis of azithromycin derivatives was carried out essentially as previously described with some minor modifications, as indicated below. The DNA template ErmCL was generated by PCR using two overlapping primers, ErmCL-fwd (5′-[…]-3′) and ErmCL-rev (5′-[…]-3′). Before the addition of the DNA template to reaction mixtures at the in vitro translation step, tubes were pre-incubated at RT for 5 min. Moreover, phenol-chloroform extraction of reverse transcription products was replaced with DNA purification using the QIAquick® PCR Purification Kit (Qiagen, Hilden, Germany) according to the manufacturer’s protocol.
Figure 4 Toe-printing (or primer extension inhibition) analysis of azithromycin derivatives on ermCL mRNA. Ribosome stalling is detected via reverse transcription in a cell-free bacterial transcription–translation coupled system. The toe-printing bands are marked with colored arrowheads, and the A-site codons (except for the start codon, P-site codon is indicated) occupied by the stalled ribosomes are indicated in the mRNA sequence with the corresponding colors. The stop codon is marked with an asterisk. All compounds but chloramphenicol (CLM) were tested at 50 μM. Chloramphenicol (CLM) was tested at 30 μM. DMSO was used as a negative control at 0.25% final concentration. Thiostrepton (THS) was used to indicate the translation start site.

Row | SMILES | Fold increase in the MIC value on E. coli ΔtolC pErmCL-ErmC compared to E. coli ΔtolC [1] | MIC [1] | MIC (E. coli ΔtolC pErmC) | MIC (E. coli ΔtolC pERMZα) | MIC (E. coli ΔtolC) | Relative luciferase activity (relative maximal rate of Fluc accumulation) [2] | MIC [3] | Inhibition of protein synthesis in vitro ([2]; concentration of 50 μM (Figure 2B)) | MIC [4] | MIC [5] | MIC [6] | MIC [7] | Kd (70S E. coli ribosomes) | Times weaker than the parental antibiotic (azithromycin), MIC (E. coli ΔtolC; toward E. coli strains (Table 4)) | MIC [8] | Ribosome stalling pattern on ermCL mRNA [9]
1 | CC[C@H]1OC(=O)[C@H](C)[C@@H](O[C@H]2C[C@@](C)(OC)[C@@H](O)[C@H](C)O2)[C@H](C)[C@@H](O[C@@H]2O[C@H](C)C[C@H](N(C)C)[C@H]2O)[C@](C)(O)C[C@@H](C)C(=O)[C@H](C)[C@@H](O)[C@]1(C)O [ERY, erythromycin] | 16 fold | 50 µg/mL (≈ 68.1 µM) | > 200 µg/mL | 1.6 µg/mL (≈ 2.18 µM) | 3.1 µg/mL (≈ 4.22 µM) | 0.9% |  |  |  |  |  |  |  |  |  | 
2 | Cc1ncc([N+](=O)[O-])n1CCO [MNZ, Metronidazole] |  | > 200 µg/mL | > 200 µg/mL | > 200 µg/mL | > 200 µg/mL |  | > 32 µg/mL | no inhibition was observed | > 32 µg/mL | > 32 µg/mL | > 32 µg/mL | 8 µg/mL (≈ 46.7 µM) |  |  |  | 
3 | CC[C@H]1OC(=O)[C@H](C)[C@@H](O[C@H]2C[C@@](C)(OC)[C@@H](OC(=O)NCCN)[C@H](C)O2)[C@H](C)[C@@H](O[C@@H]2O[C@H](C)C[C@H](N(C)C)[C@H]2OC(C)=O)[C@](C)(O)C[C@@H](C)CN(C)[C@H](C)[C@H]2OC(=O)O[C@@]21C [compound 6, 2′-O-Acetyl-4′′-O-((2-aminoethyl)carbamoyl)-11,12-cyclic carbonate of azithromycin] |  | 6.3 µg/mL (≈ 6.98 µM) | > 200 µg/mL | 3.1 µg/mL (≈ 3.43 µM) | 3.1 µg/mL (≈ 3.43 µM) | 46% |  |  | 32 µg/mL (≈ 35.4 µM) |  | > 32 µg/mL |  | 6.5 nM and 6 nM | 2–4 times | > 32 µg/mL | premature ribosome stalling at the first Phe codon (UUU)
